# ± gives the standard deviation of the averaged measurements.
# How the values were obtained:
# [1] = compound: COc1ccc(-c2cc3c(C)nc(N)nc3n([C@H]3CC[C@H](OCCO)CC3)c2=O)cn1; assay: surviving fraction relative to DMSO-only wells; higher = less growth inhibition; details: exposure time: 5 days
# In short: (§1)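 Tumour cell lines were seeded in log phase at 250–500 cells per well into 384-well plates. Starting 24 hours later, inhibitors were present continuously for five days at 0.5, 1, 5, 10, 50, 100, 500 and 1000 nM. Surviving fraction, from CellTiter-Glo luminescence, is normalised to the median of DMSO-only wells. Three screens per line were required, with replicate Pearson r >0.7 and median Z' >0.3 for a line to be kept.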
# [2] = compound: C[C@H](CN(C)C)Oc1nc(Nc2cc3cccc(Cl)c3cn2)cnc1C#N; assay: as above; details: exposure time: 5 days
# In short: as §1
test system,measurement,setting,value
MDAMB436 BREAST,surviving fraction,[1]; 0.5 nM,0.881 ± 0.036
same,surviving fraction,[1]; 1 nM,0.856 ± 0.055
same,surviving fraction,[1]; 5 nM,0.8 ± 0.031
same,surviving fraction,[1]; 10 nM,0.75 ± 0.051
same,surviving fraction,[1]; 50 nM,0.582 ± 0.027
same,surviving fraction,[1]; 100 nM,0.432 ± 0.023
same,surviving fraction,[1]; 500 nM,0.265 ± 0.016
same,surviving fraction,[1]; 1000 nM,0.2398 ± 0.0015
same,surviving fraction,[2]; 0.5 nM,0.927 ± 0.072
same,surviving fraction,[2]; 1 nM,0.927 ± 0.15
same,surviving fraction,[2]; 5 nM,0.963 ± 0.14
same,surviving fraction,[2]; 10 nM,0.959 ± 0.13
same,surviving fraction,[2]; 50 nM,0.953 ± 0.11
same,surviving fraction,[2]; 100 nM,0.808 ± 0.14
same,surviving fraction,[2]; 500 nM,0.641 ± 0.1
same,surviving fraction,[2]; 1000 nM,0.451 ± 0.077
MDAMB453 BREAST,surviving fraction,[1]; 0.5 nM,1.08 ± 0.075
same,surviving fraction,[1]; 1 nM,1.03 ± 0.078
same,surviving fraction,[1]; 5 nM,1.05 ± 0.054
same,surviving fraction,[1]; 10 nM,1.06 ± 0.069
same,surviving fraction,[1]; 50 nM,0.603 ± 0.051
same,surviving fraction,[1]; 100 nM,0.312 ± 0.047
same,surviving fraction,[1]; 500 nM,0.0933 ± 0.0086
same,surviving fraction,[1]; 1000 nM,0.0587 ± 0.016
same,surviving fraction,[2]; 0.5 nM,1.04 ± 0.025
same,surviving fraction,[2]; 1 nM,1.09 ± 0.063
same,surviving fraction,[2]; 5 nM,1.11 ± 0.058
same,surviving fraction,[2]; 10 nM,1.06 ± 0.025
same,surviving fraction,[2]; 50 nM,1.1 ± 0.051
same,surviving fraction,[2]; 100 nM,1.1 ± 0.056
same,surviving fraction,[2]; 500 nM,0.596 ± 0.074
same,surviving fraction,[2]; 1000 nM,0.273 ± 0.012
MDAMB468 BREAST,surviving fraction,[1]; 0.5 nM,0.971 ± 0.045
same,surviving fraction,[1]; 1 nM,0.965 ± 0.12
same,surviving fraction,[1]; 5 nM,0.989 ± 0.024
same,surviving fraction,[1]; 10 nM,1 ± 0.078
same,surviving fraction,[1]; 50 nM,0.857 ± 0.019
same,surviving fraction,[1]; 100 nM,0.733 ± 0.021
same,surviving fraction,[1]; 500 nM,0.255 ± 0.019
same,surviving fraction,[1]; 1000 nM,0.0787 ± 0.0084
same,surviving fraction,[2]; 0.5 nM,0.976 ± 0.074
same,surviving fraction,[2]; 1 nM,1.01 ± 0.043
same,surviving fraction,[2]; 5 nM,1.08 ± 0.035
same,surviving fraction,[2]; 10 nM,1.071 ± 0.0092
same,surviving fraction,[2]; 50 nM,1.03 ± 0.036
same,surviving fraction,[2]; 100 nM,1.03 ± 0.041
same,surviving fraction,[2]; 500 nM,0.54 ± 0.039
same,surviving fraction,[2]; 1000 nM,0.223 ± 0.017
MFM223 BREAST,surviving fraction,[1]; 0.5 nM,1.09 ± 0.086
same,surviving fraction,[1]; 1 nM,1.1 ± 0.063
same,surviving fraction,[1]; 5 nM,1.04 ± 0.061
same,surviving fraction,[1]; 10 nM,0.993 ± 0.079
same,surviving fraction,[1]; 50 nM,0.674 ± 0.071
same,surviving fraction,[1]; 100 nM,0.432 ± 0.016
same,surviving fraction,[1]; 500 nM,0.127 ± 0.012
same,surviving fraction,[1]; 1000 nM,0.0725 ± 0.0048
same,surviving fraction,[2]; 0.5 nM,1.27 ± 0.17
same,surviving fraction,[2]; 1 nM,1.09 ± 0.057
same,surviving fraction,[2]; 5 nM,1.15 ± 0.14
same,surviving fraction,[2]; 10 nM,1.09 ± 0.094
same,surviving fraction,[2]; 50 nM,1.08 ± 0.093
same,surviving fraction,[2]; 100 nM,1.14 ± 0.18
same,surviving fraction,[2]; 500 nM,0.8 ± 0.048
same,surviving fraction,[2]; 1000 nM,0.526 ± 0.17
MG63 BONE,surviving fraction,[1]; 0.5 nM,0.984 ± 0.0072
same,surviving fraction,[1]; 1 nM,0.97 ± 0.04
same,surviving fraction,[1]; 5 nM,0.9233 ± 0.009
same,surviving fraction,[1]; 10 nM,0.833 ± 0.035
same,surviving fraction,[1]; 50 nM,0.539 ± 0.021
same,surviving fraction,[1]; 100 nM,0.348 ± 0.011
same,surviving fraction,[1]; 500 nM,0.137 ± 0.0046
same,surviving fraction,[1]; 1000 nM,0.0953 ± 0.0011
same,surviving fraction,[2]; 0.5 nM,1.03 ± 0.042
same,surviving fraction,[2]; 1 nM,1.05 ± 0.035
same,surviving fraction,[2]; 5 nM,1.05 ± 0.037
same,surviving fraction,[2]; 10 nM,1.06 ± 0.025
same,surviving fraction,[2]; 50 nM,1.11 ± 0.031
same,surviving fraction,[2]; 100 nM,1.12 ± 0.047
same,surviving fraction,[2]; 500 nM,1.05 ± 0.051
same,surviving fraction,[2]; 1000 nM,0.889 ± 0.045
MHM BONE,surviving fraction,[1]; 0.5 nM,0.999 ± 0.011
same,surviving fraction,[1]; 1 nM,0.967 ± 0.013
same,surviving fraction,[1]; 5 nM,0.99 ± 0.012
same,surviving fraction,[1]; 10 nM,0.957 ± 0.018
same,surviving fraction,[1]; 50 nM,0.888 ± 0.029
same,surviving fraction,[1]; 100 nM,0.823 ± 0.013
same,surviving fraction,[1]; 500 nM,0.478 ± 0.015
same,surviving fraction,[1]; 1000 nM,0.29 ± 0.0046
same,surviving fraction,[2]; 0.5 nM,1.02 ± 0.031
same,surviving fraction,[2]; 1 nM,1.03 ± 0.012
same,surviving fraction,[2]; 5 nM,1.04 ± 0.026
same,surviving fraction,[2]; 10 nM,1.07 ± 0.06
same,surviving fraction,[2]; 50 nM,1.031 ± 0.0078
same,surviving fraction,[2]; 100 nM,1.05 ± 0.02
same,surviving fraction,[2]; 500 nM,1.063 ± 0.0031
same,surviving fraction,[2]; 1000 nM,0.999 ± 0.018
NCIH441 LUNG,surviving fraction,[1]; 0.5 nM,1.03 ± 0.068
same,surviving fraction,[1]; 1 nM,1.03 ± 0.071
same,surviving fraction,[1]; 5 nM,1.06 ± 0.064
same,surviving fraction,[1]; 10 nM,0.966 ± 0.058
same,surviving fraction,[1]; 50 nM,0.886 ± 0.048
same,surviving fraction,[1]; 100 nM,0.789 ± 0.028
same,surviving fraction,[1]; 500 nM,0.425 ± 0.021
same,surviving fraction,[1]; 1000 nM,0.412 ± 0.015
same,surviving fraction,[2]; 0.5 nM,1.1 ± 0.07
same,surviving fraction,[2]; 1 nM,1.01 ± 0.04
same,surviving fraction,[2]; 5 nM,1.1 ± 0.035
same,surviving fraction,[2]; 10 nM,1.19 ± 0.053
same,surviving fraction,[2]; 50 nM,1.17 ± 0.026
same,surviving fraction,[2]; 100 nM,1.16 ± 0.11
same,surviving fraction,[2]; 500 nM,0.86 ± 0.051
same,surviving fraction,[2]; 1000 nM,0.531 ± 0.031
NOS1 BONE,surviving fraction,[1]; 0.5 nM,1.13 ± 0.032
same,surviving fraction,[1]; 1 nM,0.989 ± 0.13
same,surviving fraction,[1]; 5 nM,1.2 ± 0.16
same,surviving fraction,[1]; 10 nM,0.96 ± 0.1
same,surviving fraction,[1]; 50 nM,0.6 ± 0.048
same,surviving fraction,[1]; 100 nM,0.448 ± 0.029
same,surviving fraction,[1]; 500 nM,0.158 ± 0.0032
same,surviving fraction,[1]; 1000 nM,0.095 ± 0.015
same,surviving fraction,[2]; 0.5 nM,1.09 ± 0.18
same,surviving fraction,[2]; 1 nM,1.05 ± 0.082
same,surviving fraction,[2]; 5 nM,0.999 ± 0.066
same,surviving fraction,[2]; 10 nM,1.02 ± 0.076
same,surviving fraction,[2]; 50 nM,0.875 ± 0.046
same,surviving fraction,[2]; 100 nM,0.709 ± 0.12
same,surviving fraction,[2]; 500 nM,0.252 ± 0.0046
same,surviving fraction,[2]; 1000 nM,0.253 ± 0.0087
NY BONE,surviving fraction,[1]; 0.5 nM,0.925 ± 0.027
same,surviving fraction,[1]; 1 nM,0.916 ± 0.038
same,surviving fraction,[1]; 5 nM,0.909 ± 0.022
same,surviving fraction,[1]; 10 nM,0.84 ± 0.047
same,surviving fraction,[1]; 50 nM,0.668 ± 0.029
same,surviving fraction,[1]; 100 nM,0.602 ± 0.028
same,surviving fraction,[1]; 500 nM,0.369 ± 0.019
same,surviving fraction,[1]; 1000 nM,0.317 ± 0.0068
same,surviving fraction,[2]; 0.5 nM,0.9707 ± 0.0081
same,surviving fraction,[2]; 1 nM,0.948 ± 0.042
same,surviving fraction,[2]; 5 nM,1.01 ± 0.026
same,surviving fraction,[2]; 10 nM,1.01 ± 0.015
same,surviving fraction,[2]; 50 nM,1 ± 0.029
same,surviving fraction,[2]; 100 nM,0.854 ± 0.06
same,surviving fraction,[2]; 500 nM,0.119 ± 0.0045
same,surviving fraction,[2]; 1000 nM,0.0907 ± 0.0051
